Measured values reported in patent US20250195536A1, “BICYCLOOCTANE KRAS INHIBITORS” (Incyte Corporation, priority 2023, published 2025).

Tests used:
KRAS G12V = KRAS G12V (Homo sapiens, UniProt P01116, G12V); experiment: GDP-GTP exchange assay (KRAS G12V); type: biochemical; details: bodipy-GDP/GppNHp exchange with SOS1; 3 h incubation after GppNHp-SOS1;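 also: one dagger IC50 up to 100 nM and two daggers above 100 nM up to 1 μM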
In short: (§1)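 IC50 came from a four-parameter fit of fluorescence loss (485/520 nm) as SOS1 (150 nM) swapped bodipy-GDP for GppNHp (500 μM) on 2.5 nM KRAS, final concentrations. Compounds were pre-incubated 4 h at r.t. (pH 7.5 Hepes, 10 mM MgCl2); exchange ran 2 h (G12D) or 3 h (G12V).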

KRAS G12D = KRAS G12D (Homo sapiens, UniProt P01116, G12D); experiment: GDP-GTP exchange assay (KRAS G12D); type: biochemical; details: bodipy-GDP/GppNHp exchange with SOS1; 4 h pre-incubation, 2 h reaction;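 also: one dagger IC50 up to 100 nM and two daggers above 100 nM up to 1 μM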
Chain of KRAS G12D (P01116 1-188 isoform P01116-2 G12D): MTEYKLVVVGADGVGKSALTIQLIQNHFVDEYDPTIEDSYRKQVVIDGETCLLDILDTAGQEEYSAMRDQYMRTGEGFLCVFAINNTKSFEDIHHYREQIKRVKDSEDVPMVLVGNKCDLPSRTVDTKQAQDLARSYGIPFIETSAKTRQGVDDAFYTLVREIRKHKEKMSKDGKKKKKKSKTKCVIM
In short: as §1

[1] = Caco2 assay (permeability, Papp A-B); type: in vitro ADME; details: human, Caco-2, absorptive direction (A-B), 50 μM test compound, 4% BSA in receiver
In short: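 Absorptive (A-B) Papp: 50 μM test compound in HBSS added to apical side of 22-25-day Caco-2 monolayers (TEER 300 Ω·cm^2), receiver buffer containing 4% BSA. After 120 min at 37 °C, 5% CO2, both sides analysed by LCMS; Papp calculated from flux rate normalized to area and donor amount.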

Chain of KRAS G12V (P01116 1-188 isoform P01116-2 G12V): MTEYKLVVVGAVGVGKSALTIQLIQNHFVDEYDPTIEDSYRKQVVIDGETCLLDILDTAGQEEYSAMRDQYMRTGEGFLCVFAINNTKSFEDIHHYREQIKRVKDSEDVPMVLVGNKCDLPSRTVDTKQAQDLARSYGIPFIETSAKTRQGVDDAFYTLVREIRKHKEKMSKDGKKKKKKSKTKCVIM

Cc1nc2c(F)c(-c3cccc(Cl)c3Cl)c(CCC#N)cc2c2c1cc([C@H]1[C@H]3C[C@H](CN(c4cnn(C(F)(F)F)c4)C3)N1C(=O)C1CC1)n2[C@H]1[C@H]2CN[C@@H]1C2 (atropisomer, axis not shown; (Ra)) [Example 27, 3-((Ra)-1-((1R,4R,5S)-2-azabicyclo[2.1.1]hexan-5-yl)-2-((1S,5R,7R)-6-(cyclopropanecarbonyl)-3-(1-(trifluoromethyl)-1H-pyrazol-4-yl)-3,6-diazabicyclo[3.2.1]octan-7-yl)-7-(2,3-dichlorophenyl)-6-fluoro-4-methyl-1H-pyrrolo[3,2-c]quinolin-8-yl)propanenitrile]
G12V_exchange (KRAS_G12V exchange assay IC50) (KRAS G12V): †
G12D_exchange (KRAS_G12D exchange assay IC50) (KRAS G12D): †
Papp A→B at 120 min, 50 μM [1]: ≤ 0.5 ×10⁻⁶ cm/s

Cc1nc2c(F)c(-c3cccc(Cl)c3Cl)c(CCC#N)cc2c2c1cc(C1C3CC(CN(C4CCCCC4)C3=O)N1C(=O)C1CC1)n2C1C2CNC1C2 (atropisomer, axis not shown; (Ra)) [Example 113, 3-((Ra)-1-((1R,4R,5S)-2-Azabicyclo[2.1.1]hexan-5-yl)-2-((1R,5R,7R)-3-cyclohexyl-6-(cyclopropanecarbonyl)-2-oxo-3,6-diazabicyclo[3.2.1]octan-7-yl)-7-(2,3-dichlorophenyl)-6-fluoro-4-methyl-1H-pyrrolo[3,2-c]quinolin-8-yl)propanenitrile]
G12V_exchange (KRAS_G12V exchange assay IC50) (KRAS G12V): †
G12D_exchange (KRAS_G12D exchange assay IC50) (KRAS G12D): †††
Papp A→B at 120 min, 50 μM [1]: ≤ 0.5 ×10⁻⁶ cm/s

COc1cc(N2C[C@@H]3C[C@H](C2)N(C(=O)C2CC2)[C@H]3c2cc3c(C)nc4c(F)c(-c5cccc(Cl)c5Cl)c(CCC#N)cc4c3n2[C@H]2[C@H]3CN[C@@H]2C3)cc(C)n1 (atropisomer, axis not shown; (Ra)) [Example 78, 3-((Ra)-1-((1R,4R,5S)-2-azabicyclo[2.1.1]hexan-5-yl)-2-((1S,5R,7R)-6-(cyclopropanecarbonyl)-3-(2-methoxy-6-methylpyridin-4-yl)-3,6-diazabicyclo[3.2.1]octan-7-yl)-7-(2,3-dichlorophenyl)-6-fluoro-4-methyl-1H-pyrrolo[3,2-c]quinolin-8-yl)propanenitrile]
G12V_exchange (KRAS_G12V exchange assay IC50) (KRAS G12V): †
G12D_exchange (KRAS_G12D exchange assay IC50) (KRAS G12D): †
Papp A→B at 120 min, 50 μM [1]: ≤ 0.5 ×10⁻⁶ cm/s

Cc1nc2c(F)c(-c3cccc(Cl)c3Cl)c(CCC#N)cc2c2c1cc([C@H]1[C@H]3C[C@H](CN(c4cnccn4)C3)N1C(=O)C1CC1)n2[C@H]1[C@H]2CN[C@@H]1C2 (atropisomer, axis not shown; (Ra)) [Example 40, 3-((Ra)-1-((1R,4R,5S)-2-azabicyclo[2.1.1]hexan-5-yl)-2-((1S,5R,7R)-6-(cyclopropanecarbonyl)-3-(pyrazin-2-yl)-3,6-diazabicyclo[3.2.1]octan-7-yl)-7-(2,3-dichlorophenyl)-6-fluoro-4-methyl-1H-pyrrolo[3,2-c]quinolin-8-yl)propanenitrile]
G12V_exchange (KRAS_G12V exchange assay IC50) (KRAS G12V): †
G12D_exchange (KRAS_G12D exchange assay IC50) (KRAS G12D): †
Papp A→B at 120 min, 50 μM [1]: ≤ 0.5 ×10⁻⁶ cm/s

Cc1nc2c(F)c(-c3cccc(Cl)c3Cl)c(CCC#N)cc2c2c1cc([C@H]1[C@H]3C[C@H](CN(C(=O)C4CC4)C3)N1C(=O)C1CC1)n2[C@H]1[C@H]2CN[C@@H]1C2 (atropisomer, axis not shown; (Ra)) [Example 107, 3-((Ra)-1-((1R,4R,5S)-2-Azabicyclo[2.1.1]hexan-5-yl)-2-((1 S,5R,7R)-3,6-di(cyclopropanecarbonyl)-3,6-diazabicyclo[3.2.1]octan-7-yl)-7-(2,3-dichlorophenyl)-6-fluoro-4-methyl-1H-pyrrolo[3,2-c]quinolin-8-yl)propanenitrile]
G12V_exchange (KRAS_G12V exchange assay IC50) (KRAS G12V): †
G12D_exchange (KRAS_G12D exchange assay IC50) (KRAS G12D): †
Papp A→B at 120 min, 50 μM [1]: ≤ 0.5 ×10⁻⁶ cm/s

Cc1nc2c(F)c(-c3cccc(Cl)c3Cl)c(CCC#N)cc2c2c1cc([C@H]1[C@H]3C[C@H](CN(c4nc(C(F)(F)F)cs4)C3)N1C(=O)C1CC1)n2[C@H]1[C@H]2CN[C@@H]1C2 (atropisomer, axis not shown; (Ra)) [Example 94, 3-((Ra)-1-((1R,4R,5S)-2-azabicyclo[2.1.1]hexan-5-yl)-2-((1S,5R,7R)-6-(cyclopropanecarbonyl)-3-(4-(trifluoromethyl)thiazol-2-yl)-3,6-diazabicyclo[3.2.1]octan-7-yl)-7-(2,3-dichlorophenyl)-6-fluoro-4-methyl-1H-pyrrolo[3,2-c]quinolin-8-yl)propanenitrile]
G12V_exchange (KRAS_G12V exchange assay IC50) (KRAS G12V): †
G12D_exchange (KRAS_G12D exchange assay IC50) (KRAS G12D): †
Papp A→B at 120 min, 50 μM [1]: ≤ 0.5 ×10⁻⁶ cm/s

Cc1nc2c(F)c(-c3cccc(Cl)c3Cl)c(CCC#N)cc2c2c1cc([C@H]1[C@H]3C[C@H](CN(c4ccn(C(C)C)c(=O)c4)C3)N1C(=O)C1CC1)n2[C@H]1[C@H]2CN[C@@H]1C2 (atropisomer, axis not shown; (Ra)) [Example 68, 3-((Ra)-1-((1R,4R,5S)-2-azabicyclo[2.1.1]hexan-5-yl)-2-((1S,5R,7R)-6-(cyclopropanecarbonyl)-3-(1-isopropyl-2-oxo-1,2-dihydropyridin-4-yl)-3,6-diazabicyclo[3.2.1]octan-7-yl)-7-(2,3-dichlorophenyl)-6-fluoro-4-methyl-1H-pyrrolo[3,2-c]quinolin-8-yl)propanenitrile]
G12V_exchange (KRAS_G12V exchange assay IC50) (KRAS G12V): †
G12D_exchange (KRAS_G12D exchange assay IC50) (KRAS G12D): †
Papp A→B at 120 min, 50 μM [1]: ≤ 0.5 ×10⁻⁶ cm/s

Cc1ccc(N2C[C@@H]3C[C@H](C2)N(C(=O)C2CC2)[C@H]3c2cc3c(C)nc4c(F)c(-c5cccc(Cl)c5Cl)c(CCC#N)cc4c3n2[C@H]2[C@H]3CN[C@@H]2C3)cn1 (atropisomer, axis not shown; (Ra)) [Example 14, 3-((Ra)-1-((1R,4R,5S)-2-azabicyclo[2.1.1]hexan-5-yl)-2-((1S,5R,7R)-6-(cyclopropanecarbonyl)-3-(6-methylpyridin-3-yl)-3,6-diazabicyclo[3.2.1]octan-7-yl)-7-(2,3-dichlorophenyl)-6-fluoro-4-methyl-1H-pyrrolo[3,2-c]quinolin-8-yl)propanenitrile]
G12V_exchange (KRAS_G12V exchange assay IC50) (KRAS G12V): †
G12D_exchange (KRAS_G12D exchange assay IC50) (KRAS G12D): †
Papp A→B at 120 min, 50 μM [1]: ≤ 0.5 ×10⁻⁶ cm/s

Cc1cc(N2C[C@@H]3C[C@H](C2)N(C(=O)C2CC2)[C@H]3c2cc3c(C)nc4c(F)c(-c5cccc(Cl)c5Cl)c(CCC#N)cc4c3n2[C@H]2[C@H]3CN[C@@H]2C3)cc(F)n1 (atropisomer, axis not shown; (Ra)) [Example 79, 3-((Ra)-1-((1R,4R,5S)-2-azabicyclo[2.1.1]hexan-5-yl)-2-((1S,5R,7R)-6-(cyclopropanecarbonyl)-3-(2-fluoro-6-methylpyridin-4-yl)-3,6-diazabicyclo[3.2.1]octan-7-yl)-7-(2,3-dichlorophenyl)-6-fluoro-4-methyl-1H-pyrrolo[3,2-c]quinolin-8-yl)propanenitrile]
G12V_exchange (KRAS_G12V exchange assay IC50) (KRAS G12V): †
G12D_exchange (KRAS_G12D exchange assay IC50) (KRAS G12D): †
Papp A→B at 120 min, 50 μM [1]: ≤ 0.5 ×10⁻⁶ cm/s

Cc1nc2c(F)c(-c3cccc(Cl)c3Cl)c(CCC#N)cc2c2c1cc([C@H]1[C@H]3C[C@H](CN(c4ccc(C(F)(F)F)nn4)C3)N1C(=O)C1CC1)n2[C@H]1[C@H]2CN[C@@H]1C2 (atropisomer, axis not shown; (Ra)) [Example 34, 3-((Ra)-1-((1R,4R,5S)-2-azabicyclo[2.1.1]hexan-5-yl)-2-((1S,5R,7R)-6-(cyclopropanecarbonyl)-3-(6-(trifluoromethyl)pyridazin-3-yl)-3,6-diazabicyclo[3.2.1]octan-7-yl)-7-(2,3-dichlorophenyl)-6-fluoro-4-methyl-1H-pyrrolo[3,2-c]quinolin-8-yl)propanenitrile]
G12V_exchange (KRAS_G12V exchange assay IC50) (KRAS G12V): †
G12D_exchange (KRAS_G12D exchange assay IC50) (KRAS G12D): †
Papp A→B at 120 min, 50 μM [1]: ≤ 0.5 ×10⁻⁶ cm/s
